Results from ChEMBL document CHEMBL1136048, “2a-[4-(Tetrahydropyridoindol-2-yl)butyl]tetrahydrobenzindole derivatives: new selective antagonists of the 5-hydroxytryptamine7 receptor” (J Med Chem, 2002).

Experiments:
[1] = molecular target: 5-hydroxytryptamine receptor 7 (Homo sapiens, UniProt P34969); experiment: Binding affinity to human recombinant 5-hydroxytryptamine 7 receptor in mammalian cells using [3H]5-CT as radioligand; format: cell-based
[2] = molecular target: Serotonin 2 (5-HT2) receptor (Rattus norvegicus, UniProt P30994+P08909+P14842); experiment: In vitro binding affinity to 5-hydroxytryptamine 2 receptor of rat cerebral cortex membranes using [3H]ketanserin as the radioligand; format: tissue-based, Membrane
[3] = molecular target: 5-hydroxytryptamine receptor 6 (Homo sapiens, UniProt P50406); experiment: In vitro binding affinity at human recombinant 5-hydroxytryptamine 6 receptor in mammalian cells using 3[H]LSD as the radioligand; format: cell-based
[4] = molecular target: 5-hydroxytryptamine receptor 1B (Rattus norvegicus, UniProt P28564); experiment: In vitro binding affinity at 5-hydroxytryptamine 1B receptor in rat striatal […] using [125I](-)-iodocyanopindolol as the radioligand
[5] = molecular target: T1, Serotonin 3 receptor (5HT3) (Mus musculus, UniProt Q9JHJ5+P23979); experiment: In vitro binding affinity at 5-hydroxytryptamine 3 receptor in N1E-115 cells using 3[H]GR-65630 as the radioligand; format: cell-based
T1 sequence (Q9JHJ5 whole entry): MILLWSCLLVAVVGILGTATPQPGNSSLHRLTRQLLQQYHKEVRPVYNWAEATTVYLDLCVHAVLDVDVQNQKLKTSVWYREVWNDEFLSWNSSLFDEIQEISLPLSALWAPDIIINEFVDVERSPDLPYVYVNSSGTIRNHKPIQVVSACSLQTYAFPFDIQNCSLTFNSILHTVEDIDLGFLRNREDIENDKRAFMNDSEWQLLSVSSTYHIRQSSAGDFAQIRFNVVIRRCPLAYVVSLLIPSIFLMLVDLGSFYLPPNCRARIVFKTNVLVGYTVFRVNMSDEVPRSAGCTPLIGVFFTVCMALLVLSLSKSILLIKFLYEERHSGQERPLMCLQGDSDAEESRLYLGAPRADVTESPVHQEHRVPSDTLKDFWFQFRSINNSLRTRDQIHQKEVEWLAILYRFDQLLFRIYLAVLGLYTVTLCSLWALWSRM
T1 sequence (P23979 whole entry): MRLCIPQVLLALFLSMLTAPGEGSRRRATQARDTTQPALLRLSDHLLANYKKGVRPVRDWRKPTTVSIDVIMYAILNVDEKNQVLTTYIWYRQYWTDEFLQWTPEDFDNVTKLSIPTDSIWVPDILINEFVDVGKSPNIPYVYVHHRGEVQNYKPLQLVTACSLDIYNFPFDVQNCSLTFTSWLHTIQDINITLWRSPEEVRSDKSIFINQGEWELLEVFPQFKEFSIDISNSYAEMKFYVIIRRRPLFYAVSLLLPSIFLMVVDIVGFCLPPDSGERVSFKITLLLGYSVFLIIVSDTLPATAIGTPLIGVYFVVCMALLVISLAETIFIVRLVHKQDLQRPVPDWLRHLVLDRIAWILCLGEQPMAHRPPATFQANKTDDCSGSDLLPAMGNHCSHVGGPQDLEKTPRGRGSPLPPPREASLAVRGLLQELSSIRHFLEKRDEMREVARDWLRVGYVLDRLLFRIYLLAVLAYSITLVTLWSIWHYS

[6] = molecular target: T2, 5-hydroxytryptamine receptor 1A (Homo sapiens, UniProt P08908); experiment: In vitro binding affinity at human recombinant 5-hydroxytryptamine 1A receptor in mammalian cells using 3[H]8-OH-DPAT as the radioligand; format: cell-based
T2 sequence (P08908 whole entry): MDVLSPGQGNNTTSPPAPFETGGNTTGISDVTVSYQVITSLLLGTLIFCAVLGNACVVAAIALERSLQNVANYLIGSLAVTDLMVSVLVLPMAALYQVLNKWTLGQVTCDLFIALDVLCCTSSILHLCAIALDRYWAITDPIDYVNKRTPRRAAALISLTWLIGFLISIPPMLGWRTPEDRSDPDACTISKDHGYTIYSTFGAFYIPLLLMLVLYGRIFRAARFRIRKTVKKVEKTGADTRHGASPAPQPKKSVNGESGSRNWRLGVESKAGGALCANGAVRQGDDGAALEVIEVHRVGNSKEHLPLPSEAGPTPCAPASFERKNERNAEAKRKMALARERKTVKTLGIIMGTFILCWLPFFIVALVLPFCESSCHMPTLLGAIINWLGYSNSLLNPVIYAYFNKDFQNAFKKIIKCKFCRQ

[7] = molecular target: 5-hydroxytryptamine receptor 4 (Cavia porcellus, UniProt O70528); experiment: In vitro binding affinity at 5-hydroxytryptamine 4 receptor in guinea pig striatum using 3[H]GR-113808 as the radioligand; format: tissue-based
Chain of 5-hydroxytryptamine receptor 4 (O70528 whole entry): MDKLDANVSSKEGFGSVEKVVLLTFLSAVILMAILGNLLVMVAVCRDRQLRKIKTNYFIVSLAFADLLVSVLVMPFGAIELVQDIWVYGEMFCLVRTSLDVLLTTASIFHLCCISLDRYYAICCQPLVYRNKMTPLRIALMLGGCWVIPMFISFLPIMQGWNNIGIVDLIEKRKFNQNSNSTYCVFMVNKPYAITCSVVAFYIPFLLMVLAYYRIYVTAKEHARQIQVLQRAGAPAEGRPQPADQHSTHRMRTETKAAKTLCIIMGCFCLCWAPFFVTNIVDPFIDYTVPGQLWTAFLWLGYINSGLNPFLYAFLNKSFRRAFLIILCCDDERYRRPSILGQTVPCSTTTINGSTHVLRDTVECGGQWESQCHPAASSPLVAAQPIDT

Chain of 5-hydroxytryptamine receptor 7 (P34969 whole entry): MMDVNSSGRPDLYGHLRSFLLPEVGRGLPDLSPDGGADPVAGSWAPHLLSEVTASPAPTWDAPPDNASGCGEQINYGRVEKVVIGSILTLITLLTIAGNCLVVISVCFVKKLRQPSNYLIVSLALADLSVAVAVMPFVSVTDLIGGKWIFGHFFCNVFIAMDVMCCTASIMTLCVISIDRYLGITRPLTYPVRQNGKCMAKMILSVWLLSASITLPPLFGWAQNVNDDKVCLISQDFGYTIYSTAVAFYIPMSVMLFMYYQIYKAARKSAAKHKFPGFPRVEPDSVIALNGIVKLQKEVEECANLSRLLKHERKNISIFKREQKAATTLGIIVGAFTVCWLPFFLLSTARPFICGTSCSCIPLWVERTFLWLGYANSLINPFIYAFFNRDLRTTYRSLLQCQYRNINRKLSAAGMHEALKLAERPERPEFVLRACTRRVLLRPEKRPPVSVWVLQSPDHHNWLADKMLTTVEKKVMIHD
Chain of 5-hydroxytryptamine receptor 1B (P28564 whole entry): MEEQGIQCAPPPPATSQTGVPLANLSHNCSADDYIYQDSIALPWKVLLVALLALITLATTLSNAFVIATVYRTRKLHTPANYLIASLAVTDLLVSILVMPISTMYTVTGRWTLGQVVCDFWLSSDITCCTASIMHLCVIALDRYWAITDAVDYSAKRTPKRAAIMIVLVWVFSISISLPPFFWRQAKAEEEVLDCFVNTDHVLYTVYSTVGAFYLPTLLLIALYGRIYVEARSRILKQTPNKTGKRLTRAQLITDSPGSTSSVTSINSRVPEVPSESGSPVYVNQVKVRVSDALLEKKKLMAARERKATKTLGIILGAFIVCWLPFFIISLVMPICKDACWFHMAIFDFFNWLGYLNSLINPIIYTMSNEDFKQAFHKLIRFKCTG
Chain of 5-hydroxytryptamine receptor 6 (P50406 whole entry): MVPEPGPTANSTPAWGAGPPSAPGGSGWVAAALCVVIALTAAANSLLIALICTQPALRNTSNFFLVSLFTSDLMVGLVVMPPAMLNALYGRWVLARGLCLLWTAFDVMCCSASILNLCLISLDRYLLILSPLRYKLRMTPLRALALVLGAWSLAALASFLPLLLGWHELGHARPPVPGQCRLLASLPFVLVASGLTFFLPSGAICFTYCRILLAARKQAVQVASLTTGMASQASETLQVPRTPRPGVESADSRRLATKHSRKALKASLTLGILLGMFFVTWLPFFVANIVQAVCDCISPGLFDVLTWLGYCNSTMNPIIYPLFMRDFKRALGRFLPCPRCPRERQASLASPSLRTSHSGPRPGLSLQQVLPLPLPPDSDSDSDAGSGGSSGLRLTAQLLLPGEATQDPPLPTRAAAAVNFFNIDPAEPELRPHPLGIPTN

Structure (SMILES) | Ki [1] [nM] | Log Ki [2] | further results
O=C1Nc2cccc3c2C1(CCCCN1CCC(O)(c2ccccc2)CC1)CCC3 (stereo not drawn) | 43.7 | -6.35 | 
O=C1Nc2cccc3c2C1(CCCCN1CCc2c([nH]c4ccccc24)C1)CCC3 (stereo not drawn) | 5.75 | -6.62 | 
O=C1Nc2cccc3c2C1(CCCCN1CCN(c2ccccc2[N+](=O)[O-])CC1)CCC3 (stereo not drawn) | 24 | -7.34 | 
O=C1Nc2ccc(O)c3c2C1(CCCCN1CC=C(c2ccccc2)CC1)CCC3 (stereo not drawn) | 8.13 | -7.4 | 
COc1ccc(N2CCN(CCCCC34CCCc5cccc(c53)NC4=O)CC2)cc1 (stereo not drawn) | 20.4 | -6.69 | 
NCCc1c[nH]c2ccc(C(N)=O)cc12 |  | < -6 | 
O=C1Nc2cccc3c2C1(CCCCN1CCN(C2CCCCC2)CC1)CCC3 (stereo not drawn) |  | < -6 | 
COc1ccc2[nH]c3c(c2c1)CCN(CCCCC12CCCc4cccc(c41)NC2=O)C3 (stereo not drawn) | 29.5 | -6.17 | 
CC(=O)c1ccc2c3c1CCCC3(CCCCN1CC=C(c3ccccc3)CC1)C(=O)N2 (stereo not drawn) | 97.7 | -7.12 | 
CC(=O)c1ccccc1N1CCN(CCCCC23CCCc4cccc(c42)NC3=O)CC1 (stereo not drawn) | 7.94 | -6.45 | 
O=C1Nc2cccc3c2C1(CCCCN1CCN(c2ncccn2)CC1)CCC3 (stereo not drawn) | 45.7 | -6.91 | 
Cc1cccc(C)c1N1CCN(CCCCC23CCCc4cccc(c42)NC3=O)CC1 (stereo not drawn) | 148 | -5.85 | 
NC(=O)Cn1c2c(c3ccccc31)CCN(CCCCC13CCCc4cccc(c41)NC3=O)C2 (stereo not drawn) | 8.71 | -6.09 | 
Cc1ccc(C2=CCN(CCCCC34CCCc5cccc(c53)NC4=O)CC2)cc1 (stereo not drawn) | 4.79 | -6.94 | 
O=C1Nc2cccc3c2C1(CCCCN1CCC(c2ccccc2)CC1)CCC3 (stereo not drawn) | 3.98 | -6.84 | 
NC(=O)c1ccccc1N1CCN(CCCCC23CCCc4cccc(c42)NC3=O)CC1 (stereo not drawn) | 17.4 | -6.05 | 
O=C1Nc2cccc3c2C1(CCCCN1CCN(c2ccccc2C(F)(F)F)CC1)CCC3 (stereo not drawn) | 74.1 | -5.86 | 
Cn1c2c(c3ccccc31)CCN(CCCCC13CCCc4cccc(c41)NC3=O)C2 (stereo not drawn) | 19.1 | -6.28 | 

Structure (SMILES) | Ki [1] [nM] | Log Ki [2] | further results
COc1ccc2c3c1CCCC3(CCCCN1CC=C(c3ccccc3)CC1)C(=O)N2 (stereo not drawn) | 110 | -7.55 | 
O=C1Nc2cccc3c2C1(CCCCN1CCN(c2ccccc2Cl)CC1)CCC3 (stereo not drawn) | 12.3 | -7.01 | 
NC(=O)c1ccc2c3c1CCCC3(CCCCN1CC=C(c3ccccc3)CC1)C(=O)N2 (stereo not drawn) | 417 | -6.8 | 
CN1C(=O)C2(CCCCN3CC=C(c4ccccc4)CC3)CCCc3cccc1c32 (stereo not drawn) | 25.1 | -6.88 | 
CC(=O)C1(c2ccccc2)CCN(CCCCC23CCCc4cccc(c42)NC3=O)CC1 (stereo not drawn) | 72.4 | -7.01 | 
COc1cccc(N2CCN(CCCCC34CCCc5cccc(c53)NC4=O)CC2)c1 (stereo not drawn) | 2.34 | -7.19 | 
CN(C)C(=O)n1c2c(c3ccccc31)CCN(CCCCC13CCCc4cccc(c41)NC3=O)C2 (stereo not drawn) | 7.08 | -6.12 | 
CC(=O)n1c2c(c3ccccc31)CCN(CCCCC13CCCc4cccc(c41)NC3=O)C2 (stereo not drawn) | 6.46 | -6.27 | 
C=CCn1c2c(c3ccccc31)CCN(CCCCC13CCCc4cccc(c41)NC3=O)C2 (stereo not drawn) | 6.03 | -6.55 | 
O=C1Nc2cccc3c2C1(CCCCN1CC=C(c2ccc(F)cc2)CC1)CCC3 (stereo not drawn) | 3.55 | -7.1 | 
COC1(c2ccccc2)CCN(CCCCC23CCCc4cccc(c42)NC3=O)CC1 (stereo not drawn) | 21.9 | -6.43 | 
O=C1Nc2ccc(Br)c3c2C1(CCCCN1CC=C(c2ccccc2)CC1)CCC3 (stereo not drawn) | 12.3 | -6.54 | 
NC(=O)C1(c2ccccc2)CCN(CCCCC23CCCc4cccc(c42)NC3=O)CC1 (stereo not drawn) | 224 | -7.8 | 
COCn1c2c(c3ccccc31)CCN(CCCCC13CCCc4cccc(c41)NC3=O)C2 (stereo not drawn) | 17 | -6.24 | 
CNC(=O)Cn1c2c(c3ccccc31)CCN(CCCCC13CCCc4cccc(c41)NC3=O)C2 (stereo not drawn) | 3.55 | < -6 | Ki [3]: > 1000 nM; Ki [4]: > 1000 nM; Log Ki [5]: > -6; Ki [6]: 129 nM; Ki [7]: 490 nM
CN(C)C(=O)Cn1c2c(c3ccccc31)CCN(CCCCC13CCCc4cccc(c41)NC3=O)C2 (stereo not drawn) | 19.1 | < -6 | 
Cc1ccccc1N1CCN(CCCCC23CCCc4cccc(c42)NC3=O)CC1 (stereo not drawn) | 10.5 | -7.35 | 
